# Experimental data taken from ChEMBL document CHEMBL1128346, “Peptidyl alpha-ketoheterocyclic inhibitors of human neutrophil elastase. 2. Effect of varying the heterocyclic ring on in vitro potency” (J Med Chem, 1995).
# Target: T1, Neutrophil elastase (Homo sapiens, UniProt P08246)
# T1 sequence (P08246 whole entry): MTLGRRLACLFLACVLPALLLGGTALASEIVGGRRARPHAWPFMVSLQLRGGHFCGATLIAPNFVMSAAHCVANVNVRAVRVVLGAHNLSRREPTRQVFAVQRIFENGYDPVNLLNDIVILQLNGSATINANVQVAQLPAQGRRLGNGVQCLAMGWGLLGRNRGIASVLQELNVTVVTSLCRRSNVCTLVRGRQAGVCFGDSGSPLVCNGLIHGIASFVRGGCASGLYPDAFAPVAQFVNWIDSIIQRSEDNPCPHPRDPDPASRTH
# Test: In vitro inhibitory activity against human neutrophil elastase (HNE) catalyzed hydrolysis of the synthetic substrate MeO-Suc-Ala- Ala-Pro-Val-pN; 'b' means could not be accurately determined due to low solubility
row,SMILES,Ki
1,CC(C)[C@H](NC(=O)[C@@H]1CCCN1C(=O)[C@@H](NC(=O)OCc1ccccc1)C(C)C)C(=O)c1cc2ccccc2s1,Could not be accurately determined due to low solubility

# Target: T1, Neutrophil elastase
# Test: In vitro inhibitory activity against human neutrophil elastase (HNE) catalyzed hydrolysis of the synthetic substrate MeO-Suc-Ala- Ala-Pro-Val-pN
row,Ki [nM],SMILES
1,0.4,CC(C)[C@H](NC(=O)OCc1ccccc1)C(=O)N1CCC[C@H]1C(=O)N[C@H](C(=O)C(F)(F)C(=O)NCc1ccccc1)C(C)C
2,0.6,COC(=O)C(=O)[C@@H](NC(=O)[C@@H]1CCCN1C(=O)[C@@H](NC(=O)OCc1ccccc1)C(C)C)C(C)C
3,87000,CCOc1cccnc1C(=O)[C@@H](NC(=O)[C@@H]1CCCN1C(=O)[C@@H](NC(=O)OCc1ccccc1)C(C)C)C(C)C
4,49,CC(C)[C@H](NC(=O)[C@@H]1CCCN1C(=O)[C@@H](NC(=O)OCc1ccccc1)C(C)C)C(=O)c1nnn(C)n1
5,1.6,CCCCC(=O)C(=O)[C@@H](NC(=O)[C@@H]1CCCN1C(=O)[C@@H](NC(=O)OCc1ccccc1)C(C)C)C(C)C
6,410,CC(C)[C@H](NC(=O)[C@@H]1CCCN1C(=O)[C@@H](NC(=O)OCc1ccccc1)C(C)C)C(=O)c1nnnn1C
7,1.2,CC(C)[C@H](NC(=O)[C@@H]1CCCN1C(=O)[C@@H](NC(=O)OCc1ccccc1)C(C)C)C(=O)C1=N[C@@H](C)CO1
8,330,CC(C)[C@H](NC(=O)[C@@H]1CCCN1C(=O)[C@@H](NC(=O)OCc1ccccc1)C(C)C)C(=O)c1ncoc1-c1ccccc1
9,1.8,CC(C)[C@H](NC(=O)[C@@H]1CCCN1C(=O)[C@@H](NC(=O)OCc1ccccc1)C(C)C)C(=O)C(N)=O
